Values quoted from earlier work as cited in PubChem BioAssay AID1259409 (Chemical Carcinogenesis Research Information System (CCRIS), 2018).
Where “and” joins values, the source holds several entries; their conditions need not be identical. Equal values may be shown once.

Tested on: rodent chemically induced tumor inhibition, incidence and multiplicity
Assay: CCRIS tumor inhibitor studies
Settings: Route [Inhibitor]: ORAL

In the case of `CSCCC(N)C(=O)O` (stereo unspecified), the “tumour outcome (control, treated, inhibition, significance)” value (Carcinogen: 3'-METHYL-4-DIMETHYLAMINOAZOBENZENE, 55-80-1, Dose [Inhibitor]: 0.72% IN DIET DAILY FOR 4 WK STARTING AFTER COMPLETION OF THE FIRST 4 WK OF CARCINOGEN TREATMENT (STUDY DURATION: 20 WK), Species: RAT, Target Tissue: Type of Lesion: LIVER: TUMOR, Dose [Carcinogen]: 0.064% IN DIET DAILY FOR 8 WK, 4 WK BEFORE AND ANOTHER 4 WK AFTER AGENT TREATMENT, Promoter: NONE USED) is listed as 7/15 (47%), 8/15 (53%), -13%, not calculated and 7/9 (78%), 8/12 (67%), 14%, not calculated, the “tumour outcome (control, treated, inhibition, significance)” value (Carcinogen: 4-DIMETHYLAMINOAZOBENZENE, 60-11-7, Dose [Inhibitor]: 0.5% OF DIET DAILY STARTING SIMULTANEOUSLY WITH CARCINOGEN TREATMENT AND CONTINUING THROUGH END OF STUDY (STUDY DURATION, Species: RAT, Strain/Sex: OSBORNE-MENDEL/MALE, Target Tissue: Type of Lesion: LIVER: MALIGNANT TUMOR, Dose [Carcinogen]: 0.06% OF DIET DAILY, Promoter: NONE USED) is listed as 48/80 (60%), 18/20 (90%), -50%, not calculated and the “tumour outcome (control, treated, inhibition, significance)” value (Carcinogen: 7,12-DIMETHYLBENZ[A]ANTHRACENE, 57-97-6, Dose [Inhibitor]: 0.5% DIET FOR 1 YR STARTING 5 D PRIOR TO CARCINOGEN TREATMENT (STUDY DURATION: 1 YR), Species: RAT, Strain/Sex: ALBINO/FEMALE, Target Tissue: Type of Lesion: HEMATPOIETIC SYSTEM: LEUKEMIA, Dose [Carcinogen]: 1.5 MG 1/WK FOR 3 WK, Promoter: NONE USED) is listed as 5/32 (16%), 2/34 (6%), 63%, not significant. The “tumour outcome (control, treated, inhibition, significance)” value (Carcinogen: 7,12-DIMETHYLBENZ[A]ANTHRACENE, 57-97-6, Dose [Inhibitor]: 0.5% DIET FOR 1 YR STARTING 5 D PRIOR TO CARCINOGEN TREATMENT (STUDY DURATION: 1 YR), Species: RAT, Strain/Sex: ALBINO/FEMALE, Target Tissue: Type of Lesion: MAMMARY GLAND: ADENOCARCINOMA, Dose [Carcinogen]: 1.5 MG 1/WK FOR 3 WK, Promoter: NONE USED) was 22/32 (69%), 6/34 (18%), 74%, p<0.0001, the “tumour outcome (control, treated, inhibition, significance)” value (Carcinogen: 7,12-DIMETHYLBENZ[A]ANTHRACENE, 57-97-6, Dose [Inhibitor]: 0.5% DIET FOR 1 YR STARTING 5 D PRIOR TO CARCINOGEN TREATMENT (STUDY DURATION: 1 YR), Species: RAT, Strain/Sex: ALBINO/FEMALE, Target Tissue: Type of Lesion: MAMMARY GLAND: FIBROADENOMA, Dose [Carcinogen]: 1.5 MG 1/WK FOR 3 WK, Promoter: NONE USED) was 21/32 (66%), 14/32 (41%), 38%, p 0.025 and the “tumour outcome (control, treated, inhibition, significance)” value (Carcinogen: 7,12-DIMETHYLBENZ[A]ANTHRACENE, 57-97-6, Dose [Inhibitor]: 0.5% DIET FOR 1 YR STARTING 5 D PRIOR TO CARCINOGEN TREATMENT (STUDY DURATION: 1 YR), Species: RAT, Strain/Sex: ALBINO/FEMALE, Target Tissue: Type of Lesion: ZYMBAL'S GLAND: CARCINOMA, Dose [Carcinogen]: 1.5 MG 1/WK FOR 3 WK, Promoter: NONE USED) was 5/32 (16%), 6/34 (18%), -13%, not significant. The “tumour outcome (control, treated, inhibition, significance)” value (Carcinogen: DIETHYLNITROSAMINE, 55-18-5, Dose [Inhibitor]: 0, 1.5% IN DIET BEGINNING 1 WK POST CARCINOGEN DOSE (STUDY DURATION: 52 WK), Species: MOUSE, Strain/Sex: C3H/MALE, Target Tissue: Type of Lesion: LIVER: ADENOMA, Dose [Carcinogen]: 150 MG/KG ONCE, Promoter: NONE USED) was 14%, 9%, 36%, not calculated, the “tumour outcome (control, treated, inhibition, significance)” value (Carcinogen: DIETHYLNITROSAMINE, 55-18-5, Dose [Inhibitor]: 0, 1.5% IN DIET BEGINNING 1 WK POST CARCINOGEN DOSE (STUDY DURATION: 52 WK), Species: MOUSE, Strain/Sex: C3H/MALE, Target Tissue: Type of Lesion: LIVER: ADENOMA, Dose [Carcinogen]: 150 MG/KG ONCE, Promoter: PHENOBARBITAL, 50-06-6) was 16%, 22%, -38%, not calculated and the “tumour outcome (control, treated, inhibition, significance)” value (Carcinogen: DIETHYLNITROSAMINE, 55-18-5, Dose [Inhibitor]: 0, 1.5% IN DIET BEGINNING 1 WK POST CARCINOGEN DOSE (STUDY DURATION: 52 WK), Species: MOUSE, Strain/Sex: C3H/MALE, Target Tissue: Type of Lesion: LIVER: CARCINOMA, Dose [Carcinogen]: 150 MG/KG ONCE, Promoter: NONE USED) was 71%, 77%, -8%, not calculated. The “tumour outcome (control, treated, inhibition, significance)” value (Carcinogen: DIETHYLNITROSAMINE, 55-18-5, Dose [Inhibitor]: 0, 1.5% IN DIET BEGINNING 1 WK POST CARCINOGEN DOSE (STUDY DURATION: 52 WK), Species: MOUSE, Strain/Sex: C3H/MALE, Target Tissue: Type of Lesion: LIVER: CARCINOMA, Dose [Carcinogen]: 150 MG/KG ONCE, Promoter: PHENOBARBITAL, 50-06-6) was 74%, 33%, 55%, p<0.01 and the “tumour outcome (control, treated, inhibition, significance)” value (Carcinogen: DIETHYLNITROSAMINE, 55-18-5, Dose [Inhibitor]: 0, 1.5% IN DIET BEGINNING 1 WK POST CARCINOGEN DOSE (STUDY DURATION: 52 WK), Species: MOUSE, Strain/Sex: C3H/MALE, Target Tissue: Type of Lesion: LUNG: ADENOMA OR ADENOCARCINOMA, Dose [Carcinogen]: 150 MG/KG ONCE, Promoter: NONE USED) was 6/14 (43%), 12/22 (55%), -28%, not calculated.
